Laboratory results from paper PMC6934184, “Selective DNA-PKcs inhibition extends the therapeutic index of localized radiotherapy and chemotherapy” (The Journal of Clinical Investigation, 2019).

Molecular target: T1, STK25 (YSK1) (Homo sapiens, UniProt O00506)
T1 construct: purchased Thermo Fisher Scientific (Life Technologies) SelectScreen
Experiment: SelectScreen Z'LYTE
Assay type: biochemical
In short: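 SelectScreen broad panel; activity (Z'LYTE, Adapta) plus binding formats. ATP: Km app for CSF1R Z'LYTE; 10 for CAMK1 Adapta. Readout = % per kinase.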

T1 sequence (O00506 whole entry): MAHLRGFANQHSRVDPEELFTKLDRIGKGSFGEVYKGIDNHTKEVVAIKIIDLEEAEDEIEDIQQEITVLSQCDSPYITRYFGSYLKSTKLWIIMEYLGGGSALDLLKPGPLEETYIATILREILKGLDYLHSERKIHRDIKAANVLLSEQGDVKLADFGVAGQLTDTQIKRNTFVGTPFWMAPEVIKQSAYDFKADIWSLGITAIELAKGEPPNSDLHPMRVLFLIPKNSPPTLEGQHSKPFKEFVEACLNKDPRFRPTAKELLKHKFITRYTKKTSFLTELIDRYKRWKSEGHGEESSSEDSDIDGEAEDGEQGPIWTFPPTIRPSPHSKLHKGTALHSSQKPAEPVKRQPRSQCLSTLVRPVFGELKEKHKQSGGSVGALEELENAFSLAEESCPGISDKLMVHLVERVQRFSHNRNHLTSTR

## CN(C(=O)CN1CCOCC1)c1ccc2sc3c(-c4cccc5c(=O)cc(N6CC7CCC(C6)O7)oc45)cccc3c2c1 [NU5455]
  inhibition at 1 µM: -11.4%
